Measured values taken from article PMC8094182, “8-Substituted Triazolobenzodiazepines: In Vitro and In Vivo Pharmacology in Relation to Structural Docking at the α1 Subunit-Containing GABAA Receptor” (Frontiers in Pharmacology, 2021).

Experiments:
[1] = biological target: T1, rat α3β3γ2 GABAA receptor (α3GABAA) (Rattus norvegicus, UniProt P18508+P20236); assay: two-electrode voltage clamp, Xenopus oocytes, potentiation of GABA EC3 current; type: cell-based; conditions: read-out: α3
T1 construct: gene Gabra3; Full-length subunits co-expressed; pentamer; with Gamma-aminobutyric acid receptor subunit beta-3
T1 sequence (P20236 29-493): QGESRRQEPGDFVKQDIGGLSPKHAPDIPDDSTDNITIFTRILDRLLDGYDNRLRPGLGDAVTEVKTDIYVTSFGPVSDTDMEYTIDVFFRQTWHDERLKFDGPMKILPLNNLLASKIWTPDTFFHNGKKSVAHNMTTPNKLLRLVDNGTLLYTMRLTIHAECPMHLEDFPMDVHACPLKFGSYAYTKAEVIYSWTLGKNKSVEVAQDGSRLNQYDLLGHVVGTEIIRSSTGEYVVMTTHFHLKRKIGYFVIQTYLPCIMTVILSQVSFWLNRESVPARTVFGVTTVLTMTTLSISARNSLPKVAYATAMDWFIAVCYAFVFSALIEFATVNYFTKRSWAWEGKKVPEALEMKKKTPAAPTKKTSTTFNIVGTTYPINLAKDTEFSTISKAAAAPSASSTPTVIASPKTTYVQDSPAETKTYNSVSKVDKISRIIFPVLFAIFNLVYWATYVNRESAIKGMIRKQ
T1 sequence (P18508 39-466): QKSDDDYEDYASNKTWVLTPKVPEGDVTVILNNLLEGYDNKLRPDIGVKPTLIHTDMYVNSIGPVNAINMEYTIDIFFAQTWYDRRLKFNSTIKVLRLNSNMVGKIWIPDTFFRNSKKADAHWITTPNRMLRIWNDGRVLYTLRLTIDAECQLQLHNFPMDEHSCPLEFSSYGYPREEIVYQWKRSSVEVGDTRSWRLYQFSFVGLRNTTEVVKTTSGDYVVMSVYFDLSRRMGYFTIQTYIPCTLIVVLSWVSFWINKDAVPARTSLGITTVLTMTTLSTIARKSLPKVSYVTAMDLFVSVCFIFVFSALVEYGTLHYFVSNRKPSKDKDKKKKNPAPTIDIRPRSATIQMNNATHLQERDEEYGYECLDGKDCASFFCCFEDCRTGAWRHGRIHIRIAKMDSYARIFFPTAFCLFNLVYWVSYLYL
T1 sequence (P63079 26-473 partner): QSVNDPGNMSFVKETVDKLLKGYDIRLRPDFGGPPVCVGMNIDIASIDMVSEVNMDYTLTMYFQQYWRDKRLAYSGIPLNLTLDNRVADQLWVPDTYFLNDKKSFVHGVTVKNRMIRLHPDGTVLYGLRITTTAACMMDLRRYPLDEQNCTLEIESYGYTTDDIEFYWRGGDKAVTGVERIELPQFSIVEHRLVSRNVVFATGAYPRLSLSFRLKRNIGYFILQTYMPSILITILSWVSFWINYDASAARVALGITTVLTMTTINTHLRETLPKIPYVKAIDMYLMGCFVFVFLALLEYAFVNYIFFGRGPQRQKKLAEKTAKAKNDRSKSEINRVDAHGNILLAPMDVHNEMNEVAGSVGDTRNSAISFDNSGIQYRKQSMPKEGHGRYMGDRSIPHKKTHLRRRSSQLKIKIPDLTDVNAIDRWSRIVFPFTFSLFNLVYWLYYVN
From the text: two-electrode voltage clamp, Xenopus oocytes, potentiation of GABA EC3 current on rat α3β3γ2 GABAA receptor (α3GABAA)

[2] = biological target: T2, rat α1β3γ2 GABAA receptor (α1GABAA) (Rattus norvegicus, UniProt P18508+P62813); assay: [3H]flunitrazepam displacement, HEK […] membranes, filtration; type: binding; conditions: read-out: α1
T2 construct: gene Gabra1; Full-length subunits co-expressed; pentamer; with Gamma-aminobutyric acid receptor subunit beta-3
T2 sequence (P62813 28-455): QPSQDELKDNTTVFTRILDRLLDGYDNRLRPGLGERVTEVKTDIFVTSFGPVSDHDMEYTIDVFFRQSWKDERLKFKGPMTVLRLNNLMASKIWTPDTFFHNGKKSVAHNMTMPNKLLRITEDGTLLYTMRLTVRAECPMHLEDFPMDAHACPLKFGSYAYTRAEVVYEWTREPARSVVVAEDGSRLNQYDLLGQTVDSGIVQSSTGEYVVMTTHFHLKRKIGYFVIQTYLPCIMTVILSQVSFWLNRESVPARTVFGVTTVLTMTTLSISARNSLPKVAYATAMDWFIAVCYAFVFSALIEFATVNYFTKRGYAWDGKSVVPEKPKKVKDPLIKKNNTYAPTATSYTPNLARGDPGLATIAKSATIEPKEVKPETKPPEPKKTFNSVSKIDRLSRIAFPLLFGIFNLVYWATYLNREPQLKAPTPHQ
T2 sequence (P18508 39-466): as the sequence (P18508 39-466) above
T2 sequence (P63079 26-473 partner): as the sequence (P63079 26-473 partner) above

[3] = biological target: T3, rat α5β3γ2 GABAA receptor (α5GABAA) (Rattus norvegicus, UniProt P18508+P19969); assay: as above; type: binding; conditions: read-out: α5
T3 construct: gene Gabra5; Full-length subunits co-expressed; pentamer; with Gamma-aminobutyric acid receptor subunit beta-3
T3 sequence (P19969 26-464): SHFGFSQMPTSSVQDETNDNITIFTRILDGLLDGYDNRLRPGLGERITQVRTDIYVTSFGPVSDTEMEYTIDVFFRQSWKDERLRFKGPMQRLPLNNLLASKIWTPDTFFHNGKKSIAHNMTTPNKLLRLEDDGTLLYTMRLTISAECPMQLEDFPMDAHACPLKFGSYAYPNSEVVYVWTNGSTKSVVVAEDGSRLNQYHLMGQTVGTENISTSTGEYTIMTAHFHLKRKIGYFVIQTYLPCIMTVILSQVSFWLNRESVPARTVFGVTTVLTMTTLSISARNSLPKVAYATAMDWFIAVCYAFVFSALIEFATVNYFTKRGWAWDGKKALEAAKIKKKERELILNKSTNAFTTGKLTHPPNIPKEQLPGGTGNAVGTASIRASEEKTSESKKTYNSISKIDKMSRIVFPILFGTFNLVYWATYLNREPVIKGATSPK
T3 sequence (P18508 39-466): as the sequence (P18508 39-466) above
T3 sequence (P63079 26-473 partner): as the sequence (P63079 26-473 partner) above

[4] = biological target: T3, rat α5β3γ2 GABAA receptor (α5GABAA); assay: two-electrode voltage clamp, Xenopus oocytes, potentiation of GABA EC3 current; type: cell-based; conditions: read-out: α5
From the text: two-electrode voltage clamp, Xenopus oocytes, potentiation of GABA EC3 current on rat α5β3γ2 GABAA receptor (α5GABAA)

[5] = biological target: T4, rat α2β3γ2 GABAA receptor (α2GABAA) (Rattus norvegicus, UniProt P18508+P23576); assay: [3H]flunitrazepam displacement, HEK […] membranes, filtration; type: binding; conditions: read-out: α2
T4 construct: gene Gabra2; Full-length subunits co-expressed; pentamer; with Gamma-aminobutyric acid receptor subunit beta-3
T4 sequence (P23576 29-451): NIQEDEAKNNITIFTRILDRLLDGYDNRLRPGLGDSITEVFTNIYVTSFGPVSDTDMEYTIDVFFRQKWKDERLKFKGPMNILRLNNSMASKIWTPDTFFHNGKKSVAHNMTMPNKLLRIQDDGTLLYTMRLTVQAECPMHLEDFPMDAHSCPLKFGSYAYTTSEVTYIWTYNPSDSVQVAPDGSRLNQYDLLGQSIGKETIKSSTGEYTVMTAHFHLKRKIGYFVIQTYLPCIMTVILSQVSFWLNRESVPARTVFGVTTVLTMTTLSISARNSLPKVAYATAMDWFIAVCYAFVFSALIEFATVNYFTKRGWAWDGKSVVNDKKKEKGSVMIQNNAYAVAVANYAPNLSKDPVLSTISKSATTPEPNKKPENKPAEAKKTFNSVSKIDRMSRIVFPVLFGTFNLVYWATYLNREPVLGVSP
T4 sequence (P18508 39-466): as the sequence (P18508 39-466) above
T4 sequence (P63079 26-473 partner): as the sequence (P63079 26-473 partner) above

[6] = biological target: T4, rat α2β3γ2 GABAA receptor (α2GABAA); assay: two-electrode voltage clamp, Xenopus oocytes, potentiation of GABA EC3 current; type: cell-based; conditions: read-out: α2
From the text: two-electrode voltage clamp, Xenopus oocytes, potentiation of GABA EC3 current on rat α2β3γ2 GABAA receptor (α2GABAA)

[7] = biological target: T2, rat α1β3γ2 GABAA receptor (α1GABAA); assay: as above; type: cell-based; conditions: read-out: α1
From the text: two-electrode voltage clamp, Xenopus oocytes, potentiation of GABA EC3 current on rat α1β3γ2 GABAA receptor (α1GABAA)

[8] = biological target: T1, rat α3β3γ2 GABAA receptor (α3GABAA); assay: [3H]flunitrazepam displacement, HEK […] membranes, filtration; type: binding; conditions: read-out: α3

Work on `C#Cc1ccc2c(c1)C(c1ccccc1Cl)=NCc1nnc(C)n1-2` [XLi-JY-DMH, 6-(2-chlorophenyl)-8-ethynyl-1-methyl-4H-benzo [f][1,2,4]triazolo[4,3-a][1,4]diazepine] yielded an EC50 [1] of 47 nM, a Ki [2] of 7.7 ± 5.5 nM and a Ki [3] of 3.8 ± 1 nM. It also gave an EC50 [4] of 14.9 nM, a Ki [5] of 7.2 ± 3 nM and an EC50 [6] of 20.7 nM. The EC50 [7] was 35.2 nM and the Ki [8] was 4.2 ± 1.6 nM.
